Test results reported in PubChem BioAssay AID248 (DTP/NCI, 2004).
Values joined by “and” are separate entries in the source; they are usually repeats but may differ in a detail not shown here. Equal values may be shown once. Toxic doses and inconclusive results are not listed.

System: L1210 leukemia ip in BDF1 mice, survival T/C
Test: NCI In Vivo Anticancer Drug Screen. Data for tumor model L1210 Leukemia (intraperitoneal) in B6D2F1 (BDF1) mice
Settings: endpoint: mean survival time, higher = longer survival
In short: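 Antitumor effect is assessed in tumor-bearing animals. Survival in the compound arm is compared with a vehicle-dosed control arm and expressed as their quotient.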

[1] = dose: 100.0 mg/kg/injection, schedule: Q01DX009 (ip), vehicle: saline sonified
[2] = dose: 100.0 mg/kg/injection, schedule: Q04DX003 (ip), vehicle: Klucel (hydroxypropylcellulose) (HPC)
[3] = dose: 200.0 mg/kg/injection, schedule: Q04DX003 (ip), vehicle: Klucel (hydroxypropylcellulose) (HPC)
[4] = dose: 400.0 mg/kg/injection, schedule: Q04DX003 (ip), vehicle: Klucel (hydroxypropylcellulose) (HPC)
[5] = dose: 100.0 mg/kg/injection, schedule: Q01DX009 (ip), vehicle: Klucel (hydroxypropylcellulose) (HPC)
[6] = dose: 200.0 mg/kg/injection, schedule: Q01DX009 (ip), vehicle: Klucel (hydroxypropylcellulose) (HPC)
[7] = dose: 400.0 mg/kg/injection, schedule: Q01DX009 (ip), vehicle: Klucel (hydroxypropylcellulose) (HPC)
[8] = dose: 100.0 mg/kg/injection, schedule: Q01DX009 (ip), vehicle: saline
[9] = dose: 200.0 mg/kg/injection, schedule: Q01DX009 (ip), vehicle: saline
[10] = dose: 400.0 mg/kg/injection, schedule: Q01DX009 (ip), vehicle: saline
[11] = dose: 100.0 mg/kg/injection, schedule: Q04DX003 (ip), vehicle: saline with Tween-80
[12] = dose: 200.0 mg/kg/injection, schedule: Q04DX003 (ip), vehicle: saline with Tween-80
[13] = dose: 400.0 mg/kg/injection, schedule: Q04DX003 (ip), vehicle: saline with Tween-80
[14] = dose: 400.0 mg/kg/injection, schedule: Q01DX001 (ip), vehicle: carboxymethylcellulose (CMC)
[15] = dose: 100.0 mg/kg/injection, schedule: Q04DX003 (ip), vehicle: saline
[16] = dose: 50.0 mg/kg/injection, schedule: Q01DX009 (ip), vehicle: saline with Tween-80
[17] = dose: 100.0 mg/kg/injection, schedule: Q01DX009 (ip), vehicle: saline with Tween-80
[18] = dose: 200.0 mg/kg/injection, schedule: Q01DX009 (ip), vehicle: saline with Tween-80
[19] = dose: 100.0 mg/kg/injection, schedule: Q01DX001 (ip), vehicle: saline
[20] = dose: 200.0 mg/kg/injection, schedule: Q01DX001 (ip), vehicle: saline
[21] = dose: 400.0 mg/kg/injection, schedule: Q01DX001 (ip), vehicle: saline
[22] = dose: 75.0 mg/kg/injection, schedule: Q01DX001 (ip), vehicle: saline
[23] = dose: 150.0 mg/kg/injection, schedule: Q01DX001 (ip), vehicle: saline

With `CCCCN(C(=O)C(F)(F)F)C(C)(C)C(SSSC(c1cccs1)C(C)(C)N(CCCC)C(=O)C(F)(F)F)c1cccs1` (configuration not stated) the T/C [1] was 94 % of control, the T/C (dose: 100.0 mg/kg/injection, schedule: Q04DX003 (ip), vehicle: saline sonified) was 90 % of control and the T/C (dose: 200.0 mg/kg/injection, schedule: Q01DX009 (ip), vehicle: saline sonified) was 96 % of control. The T/C (dose: 200.0 mg/kg/injection, schedule: Q04DX003 (ip), vehicle: saline sonified) was 93 % of control and the T/C (dose: 400.0 mg/kg/injection, schedule: Q04DX003 (ip), vehicle: saline sonified) was 90 % of control.

In the case of `CNC(=S)N/N=C/c1ccc2c(c1)CCC2`, the T/C [2] was 100 % of control, the T/C [3] was 100 % of control and the T/C [4] was 91 % of control.

For `Cc1ccc(OS(=O)(=O)c2ccc([N+](=O)[O-])cc2)cc1`, the T/C [5] was 97 % of control, the T/C [2] was 97 % of control and the T/C [6] was 96 % of control. For the same compound, the T/C [3] was 101 % of control, the T/C [7] was 95 % of control and the T/C [4] was 100 % of control.

`CCOC(=O)C(CO)(CO)C(=O)OCC` was tested, and the T/C [8] was 106 % of control, the T/C [9] was 92 % of control and the T/C [10] was 100 % of control.

For `CCOc1ccc(C(=O)O)cc1OCC`, the T/C [11] was 110 % of control, the T/C [12] was 98 % of control and the T/C [13] was 96 % of control.

In the case of `O=C1c2cc(F)ccc2-c2cc([N+](=O)[O-])ccc21`, the T/C (dose: 100.0 mg/kg/injection, schedule: Q01DX001 (ip), vehicle: carboxymethylcellulose (CMC)) was 94 % of control, the T/C (dose: 200.0 mg/kg/injection, schedule: Q01DX001 (ip), vehicle: carboxymethylcellulose (CMC)) was 94 % of control and the T/C [14] was 99 % of control.

In the case of `COc1cc2c(cc1OC(C)=O)C(=O)CCC=C2`, the T/C [8] was 113 % of control, the T/C (dose: 100.0 mg/kg/injection, schedule: Q04DX003 (ip), vehicle: other) was 110 % of control and the T/C [9] was 103 % of control. The T/C (dose: 200.0 mg/kg/injection, schedule: Q04DX003 (ip), vehicle: other) was 115 % of control, the T/C [10] was 95 % of control and the T/C (dose: 400.0 mg/kg/injection, schedule: Q04DX003 (ip), vehicle: other) was 103 % of control.

For `Cc1cc(OC(=O)Nc2cccc(C(F)(F)F)c2)c(C)cc1Cl`, the T/C [5] was 106 % of control, the T/C [6] was 118 % of control and the T/C [7] was 102 % of control.

`COC(=O)C1(C)CCC(c2ccc(OC)cc2)CC1=O` (configuration not stated) was tested, and the T/C [8] was 93 % of control, the T/C [15] was 92 % of control and the T/C [9] was 88 % of control. For the same compound, the T/C (dose: 200.0 mg/kg/injection, schedule: Q04DX003 (ip), vehicle: saline) was 95 % of control, the T/C [10] was 90 % of control and the T/C (dose: 400.0 mg/kg/injection, schedule: Q04DX003 (ip), vehicle: saline) was 88 % of control.

In the case of `Cc1ccc2c(c1)CCCN2C=O`, the T/C [16] was 95 % of control, the T/C [17] was 93 % of control and the T/C [11] was 102 % of control. For the same compound, the T/C [18] was 102 % of control and the T/C [12] was 94 % of control.

In the case of `CN(Cc1ccccc1)C(=O)c1ccc(C(=O)N(C)Cc2ccccc2)cc1`, the T/C [5] was 97 % of control, the T/C [6] was 108 % of control and the T/C [7] was 102 % of control.

With `CC1=CC(O)Nc2c(CBr)cccc21` (configuration not stated) the T/C (dose: 25.0 mg/kg/injection, schedule: Q01DX009 (ip), vehicle: saline with Tween-80) was 97 % of control, the T/C [16] was 103 % of control and the T/C [19] was 107 % of control. The T/C [15] was 101 % of control, the T/C [20] was 95 % of control and the T/C [21] was 91 % of control.

In the case of `O=C(NCc1ccco1)c1cccc(F)c1`, the T/C (dose: 25.0 mg/kg/injection, schedule: Q01DX009 (ip), vehicle: Klucel (hydroxypropylcellulose) (HPC)) was 93 % of control, the T/C (dose: 50.0 mg/kg/injection, schedule: Q01DX009 (ip), vehicle: Klucel (hydroxypropylcellulose) (HPC)) was 95 % of control and the T/C [5] was 104 % of control and 109 % of control.

For `COc1ccc(/C=N/O)c(C)c1OC`, the T/C [19] was 98 % of control, the T/C [20] was 96 % of control and the T/C [21] was 96 % of control.

For `Cc1ccc(NC(=O)N(CCCl)N=O)cc1NC(=O)N(CCCl)N=O`, the T/C (dose: 177.0 mg/kg/injection, schedule: Q01DX001 (ip), vehicle: carboxymethylcellulose (CMC)) was 154 % of control, the T/C (dose: 266.0 mg/kg/injection, schedule: Q01DX001 (ip), vehicle: carboxymethylcellulose (CMC)) was 152 % of control and the T/C (dose: 266.0 mg/kg/injection, schedule: Q01DX009 (ip), vehicle: carboxymethylcellulose (CMC)) was 152 % of control. The T/C [14] was 157 % of control, the T/C (dose: 400.0 mg/kg/injection, schedule: Q01DX009 (ip), vehicle: carboxymethylcellulose (CMC)) was 195 % of control and the T/C (dose: 600.0 mg/kg/injection, schedule: Q01DX001 (ip), vehicle: carboxymethylcellulose (CMC)) was 158 % of control. For the same compound, the T/C (dose: 600.0 mg/kg/injection, schedule: Q01DX009 (ip), vehicle: carboxymethylcellulose (CMC)) was 202 % of control.

For `CC1(C#N)CC(C)(C)C(=O)N1` (configuration not stated), the T/C [22] was 102 % of control, the T/C [23] was 102 % of control and the T/C (dose: 300.0 mg/kg/injection, schedule: Q01DX001 (ip), vehicle: saline) was 108 % of control.

`NC1(CO)COC(c2ccccc2)OC1` (configuration not stated) was tested, and the T/C (dose: 12.5 mg/kg/injection, schedule: Q01DX009 (ip), vehicle: saline) was 102 % of control, the T/C (dose: 12.5 mg/kg/injection, schedule: Q04DX003 (ip), vehicle: saline) was 102 % of control and the T/C (dose: 25.0 mg/kg/injection, schedule: Q01DX009 (ip), vehicle: saline) was 94 % of control. The T/C (dose: 25.0 mg/kg/injection, schedule: Q04DX003 (ip), vehicle: saline) was 96 % of control, the T/C (dose: 50.0 mg/kg/injection, schedule: Q01DX009 (ip), vehicle: saline) was 96 % of control and 104 % of control and the T/C (dose: 50.0 mg/kg/injection, schedule: Q04DX003 (ip), vehicle: saline) was 105 % of control. For the same compound, the T/C [1] was 96 % of control, the T/C [8] was 112 % of control and the T/C [15] was 107 % of control and 110 % of control.

`CCCCCCCCCCCCCCCC(N)=O` was tested, and the T/C [5] was 93 % of control, the T/C [2] was 90 % of control and the T/C [6] was 102 % of control. For the same compound, the T/C [3] was 87 % of control, the T/C [7] was 94 % of control and the T/C [4] was 98 % of control.

`Cc1cc(C)[n+]2ccccc2n1` was tested, and the T/C [22] was 102 % of control and the T/C [23] was 98 % of control.

In the case of `O=C1CCCNc2ccccc21`, the T/C [17] was 98 % of control, the T/C [2] was 93 % of control and the T/C [18] was 110 % of control. For the same compound, the T/C [3] was 106 % of control, the T/C (dose: 400.0 mg/kg/injection, schedule: Q01DX009 (ip), vehicle: saline with Tween-80) was 93 % of control and the T/C [4] was 98 % of control.

For `CC1=N/C(=C/c2ccccc2)C(=O)O1`, the T/C [11] was 97 % of control, the T/C [12] was 92 % of control and the T/C [13] was 98 % of control.

For `O=C(CCC(C(=O)c1ccccc1)c1ccccc1)c1ccc(-c2ccccc2)cc1` (configuration not stated), the T/C (dose: 87.5 mg/kg/injection, schedule: Q01DX009 (ip), vehicle: Klucel (hydroxypropylcellulose) (HPC)) was 94 % of control.

`CC(=O)C12CC3CC1C2C3` was tested, and the T/C (dose: 75.0 mg/kg/injection, schedule: Q04DX003 (ip), vehicle: saline) was 106 % of control, the T/C (dose: 150.0 mg/kg/injection, schedule: Q04DX003 (ip), vehicle: saline) was 102 % of control and the T/C (dose: 300.0 mg/kg/injection, schedule: Q04DX003 (ip), vehicle: saline) was 101 % of control.

For `CNC(=O)Nc1ccc(Cl)cc1`, the T/C (dose: 100.0 mg/kg/injection, schedule: Q01DX001 (ip), vehicle: Klucel (hydroxypropylcellulose) (HPC)) was 107 % of control, the T/C (dose: 200.0 mg/kg/injection, schedule: Q01DX001 (ip), vehicle: Klucel (hydroxypropylcellulose) (HPC)) was 105 % of control and the T/C (dose: 400.0 mg/kg/injection, schedule: Q01DX001 (ip), vehicle: Klucel (hydroxypropylcellulose) (HPC)) was 107 % of control.

With `CSc1ccc(OC(=O)NC2CCCCC2)cc1C` the T/C [5] was 92 % of control, the T/C [2] was 93 % of control and the T/C [6] was 97 % of control. The T/C [3] was 111 % of control, the T/C [7] was 93 % of control and the T/C [4] was 95 % of control.
